Results as given in patent US20190119282A1, “IMIDAZOPYRIDAZINES USEFUL AS INHIBITORS OF THE PAR-2 SIGNALING PATHWAY” (Vertex Pharmaceuticals Incorporated, priority 2013, published 2019).

Assays:
[1] = tested on: UTP-stimulated Ca2+ response in HT-29 cells; test: Ca FLIPR TETRA assay, ANTAGONIST mode, stimulation with 0.6 μM UTP; assay type: cell-based, human; settings: Homo sapiens, HT-29 cells
Procedure, shortened: (§1)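 HT-29 cells grown overnight in 1% FBS McCoy's medium were loaded with calcium 5 dye (45 min 37 °C, 15 min r.t.). Compounds were added and Ca2+ read for direct activation, then after 30 min at r.t. cells were stimulated with 8 μM SLIGKV, 1 U/mL thrombin, 3.1 U/mL trypsin or 0.6 μM UTP (final).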

[2] = tested on: Thrombin-stimulated Ca2+ response in HT-29 cells; test: Ca FLIPR TETRA assay, ANTAGONIST mode, stimulation with 1 U/mL Thrombin; assay type: cell-based, human; settings: Homo sapiens, HT-29 cells
Procedure, shortened: as §1

[3] = target: T1, PAR2 (HT-29 cells, SLIGKV activation) (Homo sapiens, UniProt P55085); test: Ca FLIPR TETRA assay, ANTAGONIST mode, stimulation with 8 μM SLIGKV; assay type: cell-based; settings: HT-29 cells
T1 construct: host or cells: HT-29 cells
T1 sequence (P55085 26-397): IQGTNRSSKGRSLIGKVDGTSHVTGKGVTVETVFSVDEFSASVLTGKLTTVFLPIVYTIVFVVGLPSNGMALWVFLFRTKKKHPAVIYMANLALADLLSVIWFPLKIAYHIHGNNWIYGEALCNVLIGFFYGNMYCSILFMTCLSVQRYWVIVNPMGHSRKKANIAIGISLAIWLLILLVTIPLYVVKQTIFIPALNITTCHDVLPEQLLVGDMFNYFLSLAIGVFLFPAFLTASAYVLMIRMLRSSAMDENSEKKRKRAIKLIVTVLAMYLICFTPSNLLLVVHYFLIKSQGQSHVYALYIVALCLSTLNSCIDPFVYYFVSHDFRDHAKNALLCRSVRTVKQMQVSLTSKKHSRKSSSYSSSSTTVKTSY
Procedure, shortened: as §1

[4] = target: T2, PAR2 (HT-29 cells, trypsin activation) (Homo sapiens, UniProt P55085); test: Ca FLIPR TETRA assay, ANTAGONIST mode, stimulation with 3.1 U/mL trypsin; assay type: cell-based; settings: HT-29 cells
T2 construct: host or cells: HT-29 cells
T2 sequence (P55085 26-397): T1 sequence (P55085 26-397)
Procedure, shortened: as §1

[5] = stimulation with 1 U/mL Thrombin
[6] = stimulation with 3.1 U/mL trypsin
[7] = antagonist mode, stimulation with 0.6 μM UTP
[8] = antagonist mode, stimulation with 1 U/mL Thrombin
[9] = antagonist mode, stimulation with 8 μM SLIGKV
[10] = antagonist mode, stimulation with 3.1 U/mL trypsin
[11] = antagonist mode, 1 U/mL Thrombin
[12] = antagonist mode, 3.1 U/mL trypsin

SMILES	IC50 [1, 7] [nM]	IC50 [2, 8] [nM]	IC50 [3, 9] [nM]	IC50 [4, 10] [nM]	further results
CC(C)c1cc(-c2ccc(F)cc2)nn2cc(C(=O)N3CCN(C(=O)Cc4ccsc4)[C@@H](C)C3)nc12 [Compound I-125]	–	–	–	–	IC50 ([1]; stimulation with 0.6 μM UTP): > 500 nM; IC50 [2, 5]: > 500 nM; IC50 ([3]; stimulation with 8 μM SLIGKV): 2 nM; IC50 [4, 6]: 5 nM
CC1CN(C(=O)c2cn3nc(-c4ccc(F)cc4)cc(C(F)(F)F)c3n2)CCCN1C(=O)OC(C)(C)C (centres unmarked) [Compound I-94]	–	–	–	–	IC50 ([1]; stimulation with 0.6 μM UTP): > 50000 nM; IC50 [2, 5]: > 50000 nM; IC50 ([3]; stimulation with 8 μM SLIGKV): 3600 nM; IC50 [4, 6]: 12000 nM
COC(=O)[C@H]1CC[C@@H](C(=O)N2CCN(C(=O)c3cn4nc(-c5ccc(Cl)cc5)cc(C(C)C)c4n3)C(C)(C)C2)CC1 [Compound I-539]	> 1000	> 1000	0.8	1.3	–
CC(C)(CC(=O)O)C(=O)N1CCN(C(=O)c2cn3nc(-c4ccc(F)cc4)cc(C(C)(C)C)c3n2)C(C)(C)C1 [Compound I-571]	–	–	–	–	IC50 ([1]; antagonist mode, 0.6 μM UTP): > 1000 nM; IC50 [2, 11]: 980 nM; IC50 ([3]; antagonist mode, 8 μM SLIGKV): 1.1 nM; IC50 [4, 12]: 3.3 nM
CC(C)(C)c1cc(-c2ccc(F)cc2)nn2cc(C(=O)N3CCNC(=O)C34CCCC4)nc12 [Compound I-462, 6-(8-(tert-butyl)-6-(4-fluorophenyl)imidazo[1,2-b]pyridazine-2-carbonyl)-6,9-diazaspiro[4.5]decan-10-one]	> 1000	> 1000	2.2	3.7	–
CC(C)c1cc(-c2ccc(F)cc2)nn2cc(C(=O)N3CCN(C(=O)[C@H](O)c4ccccc4Cl)[C@@H](C)C3)nc12 [Compound I-106]	–	–	–	–	IC50 ([1]; stimulation with 0.6 μM UTP): > 5000 nM; IC50 [2, 5]: > 5000 nM; IC50 ([3]; stimulation with 8 μM SLIGKV): 0.6 nM; IC50 [4, 6]: 1 nM
CC1(c2cc(-c3ccc(F)cc3)nn3cc(C(=O)N4CCNC(=O)C4(C)C)nc23)CC1 [Compound I-30, 4-[6-(4-fluorophenyl)-8-(1-methylcyclopropyl)imidazo[1,2-b]pyridazine-2-carbonyl]-3,3-dimethyl-piperazin-2-one]	–	–	–	–	IC50 ([1]; stimulation with 0.6 μM UTP): 26000 nM; IC50 [2, 5]: 25000 nM; IC50 ([3]; stimulation with 8 μM SLIGKV): 2 nM; IC50 [4, 6]: 3 nM
CC(C)(C)c1cc(-c2ccc(Cl)cc2)nn2cc(C(=O)N3CCNC(=O)C3(C)C)nc12 [Compound I-361]	> 1000	> 1000	2.7	2.2	–
CC(C)c1cc(-c2ccc(F)cc2)nn2cc(C(=O)N3CCN(C(=O)CC(C)(C)O)CC3(C)C)nc12 [Compound I-305]	> 1000	> 1000	33	45	–
CC(C)c1cc(-c2ccc(F)cc2)nn2cc(C(=O)N3CCN(C(=O)C(O)c4ccc(F)cc4)[C@@H](C)C3)nc12 (some centres unmarked) [Compound I-108]	–	–	–	–	IC50 ([1]; stimulation with 0.6 μM UTP): 16000 nM; IC50 [2, 5]: 8300 nM; IC50 ([3]; stimulation with 8 μM SLIGKV): 0.7 nM; IC50 [4, 6]: 0.7 nM
CC(C)(C)c1cc(-c2ccc(F)cc2)nn2cc(C(=O)N3CCN(c4cc[nH]n4)C(=O)C3(C)C)nc12 [Compound I-471]	> 1000	905	0.8	1.6	–
CC(C)c1cc(-c2ccc(C(F)(F)F)c(F)c2)nn2cc(C(=O)N3CCN(C(=O)c4ccn[nH]4)CC3(C)C)nc12 [Compound I-277]	> 1000	> 1000	1.3	1.3	–
CC(C)(C)c1cc(-c2ccc(F)cc2)nn2cc(C(=O)N3CCN(c4cscn4)C(=O)C3(C)C)nc12 [Compound I-266]	> 1000	> 100	0.6	1	–
CC(C)(C)c1cc(-c2ccc(F)cc2)nn2cc(C(=O)N3CCN(C(=O)CCC(=O)O)CC3(C)C)nc12 [Compound I-560, 4-(4-(8-(tert-butyl)-6-(4-fluorophenyl)imidazo[1,2-b]pyridazine-2-carbonyl)-3,3-dimethylpiperazin-1-yl)-4-oxobutanoic acid]	–	–	–	–	IC50 ([1]; antagonist mode, 0.6 μM UTP): > 1000 nM; IC50 [2, 11]: > 1000 nM; IC50 ([3]; antagonist mode, 8 μM SLIGKV): 4.9 nM; IC50 [4, 12]: 9.3 nM
CC(CO)N1CCN(C(=O)c2cn3nc(-c4ccc(F)cc4)cc(C(C)(C)C)c3n2)C(C)(C)C1=O (centres unmarked) [Compound I-233]	> 1000	> 1000	5	6.8	–
CC(C)CCCC(=O)N1CCN(C(=O)c2cn3nc(-c4ccc(F)cc4)cc(C(C)C)c3n2)C[C@@H]1C [Compound I-139]	–	–	–	–	IC50 ([1]; stimulation with 0.6 μM UTP): > 500 nM; IC50 [2, 5]: 25000 nM; IC50 ([3]; stimulation with 8 μM SLIGKV): 2 nM; IC50 [4, 6]: 9 nM
CC(C)c1cc(-c2ccc(F)c(F)c2)nn2cc(C(=O)N3CCNC(=O)C3(C)C)nc12 [Compound I-243]	> 1000	> 1000	4.1	8.5	–
O=C(c1cn2nc(-c3ccc(F)cc3)cc(C(F)(F)F)c2n1)N1CC[C@@]2(O)CCCC[C@H]2C1 [Compound I-70]	–	–	–	–	IC50 ([1]; stimulation with 0.6 μM UTP): 17000 nM; IC50 [2, 5]: 12000 nM; IC50 ([3]; stimulation with 8 μM SLIGKV): 3700 nM; IC50 [4, 6]: 5700 nM
CC(C)c1cc(-c2ccccc2F)nn2cc(C(=O)N3CCNC(=O)C3(C)C)nc12 [Compound I-479]	> 1000	> 1000	155	250	–
CC(O)C(=O)N1CCN(C(=O)c2cn3nc(-c4ccc(F)cc4)cc(C(C)C)c3n2)C(C)(C)C1 (centres unmarked) [Compound I-175]	–	–	–	–	IC50 ([1]; stimulation with 0.6 μM UTP): 34000 nM; IC50 [2, 5]: 41000 nM; IC50 ([3]; stimulation with 8 μM SLIGKV): 23 nM; IC50 [4, 6]: 60 nM

Further lines, with some results ahead:

IC50 [1, 7] [nM]	IC50 [2, 8] [nM]	IC50 [3, 9] [nM]	IC50 [4, 10] [nM]	SMILES	further results
> 1000	> 1000	0.8	1.2	COC(=O)C1CC(C(=O)N2CCN(C(=O)c3cn4nc(-c5ccc(F)cc5)cc(C(C)(C)C)c4n3)C(C)(C)C2)C1 (centres unmarked) [Compound I-537]	–
> 1000	> 1000	0.7	1.1	Cc1cc(C(=O)N2CCN(C(=O)c3cn4nc(-c5ccc(F)cc5)cc(C(C)(C)C)c4n3)C(C)(C)C2)no1 [Compound I-433]	–
> 1000	> 1000	0.6	0.8	Cc1cc(-c2cc(C(C)(C)C)c3nc(C(=O)N4CCN(C(=O)C5CC(C)(O)C5)CC4(C)C)cn3n2)ccc1F (centres unmarked) [Compound I-384]	–
> 1000	> 1000	0.5	0.7	Cc1cc(C(=O)N2CCN(C(=O)c3cn4nc(-c5ccc(C)c(F)c5)cc(C(C)(C)C)c4n3)C(C)(C)C2)[nH]n1 [Compound I-427]	–
6350	2700	2.7	2.7	CC(C)c1cc(-c2ccc(F)c(Cl)c2)nn2cc(C(=O)N3CCN(C(=O)[C@H]4C[C@@](C)(O)C4)CC3(C)C)nc12 [Compound I-482]	–
> 1000	> 1000	57	128	CC(C)c1cc(-c2cccc(F)c2)nn2cc(C(=O)N3CCN(C(=O)C(C)(C)O)CC3(C)C)nc12 [Compound I-250]	–
> 1000	> 1000	1	1.4	CC(C)(C)c1cc(-c2ccc(F)cc2)nn2cc(C(=O)N3CCN(C(=O)c4ccccn4)CC3(C)C)nc12 [Compound I-284]	–
> 1000	> 1000	1.4	1.6	Cc1ncc(C(=O)N2CCN(C(=O)c3cn4nc(-c5ccc(C)c(F)c5)cc(C(C)(C)C)c4n3)C(C)(C)C2)[nH]1 [Compound I-431]	–
> 1000	> 1000	1	1.5	Cc1n[nH]c(C(=O)N2CCN(C(=O)c3cn4nc(-c5ccc(C(F)(F)F)cc5)cc(C(C)(C)C)c4n3)C(C)(C)C2)n1 [Compound I-403]	–
